Source: patent US10526311B2 (ASTEX THERAPEUTICS LIMITED, priority 2015, dated 2020)
Like-named read-outs stand apart in the source and are kept apart here. Each block holds one compound with its values, some of them ahead of it.

Experiments:
[1] = tested on: SJSA-1 (MDM2 amplified, p53 wild-type osteosarcoma); experiment: Protocol A: SJSA-1 growth inhibition (SRB)
SJSA-1 = experiment: Protocol B: SJSA-1 CellTiter-Glo cell viability; settings: for SJSA1 (Protocol B) % at concentration: SJSA-1, Protocol B, at 10 μM
[2] = tested on: SN40R2 (MDM2 amplified, p53 mutated osteosarcoma); experiment: Protocol A: SN40R2 growth inhibition (SRB); settings: 72 h
[3] = target: MDM2-p53 interaction (in vitro translated MDM2, biotinylated IP3 peptide) (Homo sapiens, UniProt Q00987); experiment: MDM2-p53 interaction 96-well plate binding assay (ELISA); settings: for inhibition at 0.001 µM: @ 0.0010 μM; for inhibition at 0.001 µM / inhibition at 0.1 µM / inhibition at 0.03 µM: read-out: MDM2 % @ concentration; for inhibition at 0.1 µM: @ 0.10 μM; for inhibition at 0.03 µM: @ 0.030 μM
Chain of MDM2-p53 interaction (in vitro translated MDM2, biotinylated IP3 peptide) (Q00987 whole entry): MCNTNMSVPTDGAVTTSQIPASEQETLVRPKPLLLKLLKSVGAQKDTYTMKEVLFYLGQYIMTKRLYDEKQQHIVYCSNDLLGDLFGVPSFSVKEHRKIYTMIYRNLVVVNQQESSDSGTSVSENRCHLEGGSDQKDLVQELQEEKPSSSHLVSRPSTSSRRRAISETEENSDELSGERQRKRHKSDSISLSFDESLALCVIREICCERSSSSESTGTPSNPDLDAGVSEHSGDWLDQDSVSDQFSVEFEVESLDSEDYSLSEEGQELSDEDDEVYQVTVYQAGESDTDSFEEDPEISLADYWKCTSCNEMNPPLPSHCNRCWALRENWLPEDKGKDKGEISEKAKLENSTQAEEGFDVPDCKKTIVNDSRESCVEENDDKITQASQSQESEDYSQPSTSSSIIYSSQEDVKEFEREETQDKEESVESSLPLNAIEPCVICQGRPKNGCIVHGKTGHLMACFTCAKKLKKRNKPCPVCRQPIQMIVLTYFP

[4] = Homo sapiens, SJSA-1, 72 h, read-out: SJSA-1 IC50 (μM) (Protocol A), SJSA-1, Protocol A (SRB), 72 hrs
[5] = Homo sapiens, SJSA-1, 72 h, read-out: SJSA1 IC50 (μM) (Protocol B), SJSA-1, Protocol B (CellTiter-Glo), 72 hrs
[6] = read-out: SN40R2 IC50 (μM) (Protocol A)
[7] = Homo sapiens, SJSA-1, 72 h, read-out: SJSA-1 IC50 (Protocol A), SJSA-1 cells, SRB, 72 hrs
[8] = Homo sapiens, SJSA-1, 72 h, read-out: SJSA1 IC50 (Protocol B), SJSA-1 cells, CellTiter-Glo, 72 hrs
[9] = read-out: SJSA1 IC50 (μM) (Protocol B), SJSA-1, Protocol B (CellTiter-Glo), 72 hrs

Compound: CC(O)(CO)c1cc(F)c2c(c1)C(=O)N(Cc1ccc(Cl)cn1)[C@@]2(OCC1(CO)CC1)c1ccc(Cl)cc1 (stereo partly drawn) [Example 17, (3R)-3-(4-Chlorophenyl)-2-[(5-chloropyridin-2-yl)methyl]-6-(1,2-dihydroxypropan-2-yl)-4-fluoro-3-({1-[hydroxy(^2H2)methyl]cyclopropyl}(^2H2)methoxy)-2,3-dihydro-1H-isoindol-1-one]
IC50 ([1]; read-out: SJSA-1 IC50 (Protocol A), SJSA-1 cells, SRB, 72 hrs): 0.1 µM

Compound: CCC(O)(c1cc(F)c2c(c1)C(=O)N(Cc1ccc(C#N)nc1)[C@@]2(O[C@H]1CCOC1)c1ccc(Cl)cc1)c1cn(C)cn1 (single isomer, unassigned) [Example 431]
IC50 [1, 4]: 0.11 µM

Compound: CCC(O)(c1cc(F)c2c(c1)C(=O)N(Cc1ncc(Cl)cn1)[C@@]2(OCC1(CO)CC1)c1ccc(Cl)cc1)c1cn(C)cn1 (single isomer, unassigned) [Example 477]
IC50 [1, 4]: 0.013 µM

Compound: CO[C@]1(c2ccc(Cl)cc2)c2ccc(C(C)(O)CN3CC(=O)NC3=O)cc2C(=O)N1Cc1ccc(Cl)cn1 (single isomer, unassigned) [Example 329]
inhibition at 30 µM ([2]; read-out: SN40R2 (Protocol A) % at concentration): 8%
MDM2 % @ concentration ([3]; @ 0.30 μM): 61% @ 0.30

Compound: CCC(O)(c1cc(F)c2c(c1)C(=O)N(Cc1ncc(Cl)cn1)[C@@]2(O[C@H]1CCOC1)c1ccc(Cl)cc1)c1cn(C)cn1 (single isomer, unassigned) [Example 475]
IC50 [1, 4]: 0.028 µM

Compound: C[C@@H](CO[C@]1(c2ccc(Cl)cc2)c2c(F)cc(C(C)(C)O)cc2C(=O)N1Cc1ccc(Cl)cn1)C(N)=O [Example 167, (2S)-3-{[(1R)-1-(4-Chlorophenyl)-2-[(5-chloropyridin-2-yl)methyl]-7-fluoro-5-(2-hydroxypropan-2-yl)-3-oxo-2,3-dihydro-1H-isoindol-1-yl]oxy}-2-methylpropanamide]
IC50 [1, 7]: 0.64 µM

Compound: CCC(O)(c1cc(F)c2c(c1)C(=O)N(Cc1ccc(C#N)cn1)[C@@]2(OCCOC)c1ccc(Cl)cc1)c1cn(C)cn1 (single isomer, unassigned) [Example 430]
IC50 [1, 4]: 0.11 µM
IC50 (SJSA-1; [5]): 0.18 µM

Compound: CO[C@]1(c2ccc(Cl)cc2)c2c(F)cc(C(C)(C)O)cc2C(=O)N1Cc1ccc(Cl)cn1 [Example 2, (3R)-3-(4-Chlorophenyl)-2-[(5-chloropyridin-2-yl)methyl]-4-fluoro-6-(2-hydroxypropan-2-yl)-3-methoxy-2,3-dihydro-1H-isoindol-1-one]
IC50 [1, 7]: 1.7 µM
IC50 (SJSA-1; [8]): 3.4 µM

Compound: CCC(O)(c1cc(F)c2c(c1)C(=O)N(Cc1ncc(C#N)cn1)[C@@]2(OCC1(C#N)CC1)c1ccc(Cl)cc1)c1cn(C)cn1 (single isomer, unassigned) [Example 462]
IC50 [1, 4]: 0.073 µM
IC50 (SJSA-1; [5]): 0.047 µM

Compound: CC(C)(O)c1cc(F)c2c(c1)C(=O)N(Cc1ccc(Cl)cn1)[C@@]2(OCC1(CNCCO)CC1)c1ccc(Cl)cc1 [Example 326, (3R)-3-(4-chlorophenyl)-2-[(5-chloropyridin-2-yl)methyl]-4-fluoro-3-[(1-{[(2-hydroxyethyl)amino]methyl}cyclopropyl)methoxy]-6-(2-hydroxypropan-2-yl)-2,3-dihydro-1H-isoindol-1-one]
inhibition at 0.03 µM [3]: 50%
IC50 (SJSA-1; [8]): 2 µM

Compound: CCC(O)(c1cc(F)c2c(c1)C(=O)N(Cc1ncc(Cl)cc1O)[C@@]2(OCCO)c1ccc(Cl)cc1)c1cn(C)cn1 (single isomer, unassigned) [Example 443]
IC50 [2, 6]: 38 µM
IC50 (SJSA-1; [5]): 0.093 µM

Compound: Cn1cc(C(C)(O)c2cc(F)c3c(c2)C(=O)N(Cc2ccc(Cl)c[n+]2[O-])[C@@]3(OCC2(CO)CC2)c2ccc(Cl)cc2)cn1 (single isomer, unassigned) [Example 407]
inhibition at 0.001 µM [3]: 62%
IC50 (SJSA-1; [8]): 0.58 µM

Compound: CO[C@]1(c2ccc(Cl)cc2)c2ccc(C(C)(O)CN3CCOCC3=O)cc2C(=O)N1Cc1ccc(Cl)cn1 (single isomer, unassigned) [Example 328]
IC50 ([2]; read-out: SN40R2 IC50 (Protocol A)): 25 µM
inhibition at 0.1 µM [3]: 42%

Further lines, with some results ahead:

IC50 [1, 4]: 0.21 µM
IC50 (SJSA-1; [5]): 0.07 µM
Compound: CN1CCC(C(C)(O)c2cc(F)c3c(c2)C(=O)N(Cc2ncc(Cl)cn2)[C@@]3(OCC2(CO)CC2)c2ccc(Cl)cc2)CC1 (single isomer, unassigned) [Example 554]

IC50 [2, 6]: 16 µM
IC50 (SJSA-1; [5]): 0.00038 µM
Compound: CCC(O)(c1cc(F)c2c(c1)C(=O)N(Cc1ncc(Cl)cn1)[C@@]2(OCC1(C#N)CC1)c1ccc(Cl)cc1)C1(F)CCN(C)CC1 (single isomer, unassigned) [Example 564]

inhibition at 0.001 µM [3]: 87%
IC50 (SJSA-1; [5]): 0.011 µM
Compound: CCC(O)(c1cc(F)c2c(c1)C(=O)N(Cc1ncc(C#N)cn1)[C@@]2(O[C@H]1CCOC1)c1ccc(Cl)cc1)[C@H]1CC[C@H](O)CC1 (stereo partly drawn) [Example 503, 2-{[(1R)-1-(4-chlorophenyl)-7-fluoro-5-{1-hydroxy-1-[trans-4-hydroxycyclohexyl]propyl}-3-oxo-1-[(3S)-oxolan-3-yloxy]-2,3-dihydro-1H-isoindol-2-yl]methyl}pyrimidine-5-carbonitrile]

IC50 [1, 4]: 0.019 µM
Compound: CCC(O)(c1cc(F)c2c(c1)C(=O)N(Cc1ncc(Cl)cn1)[C@@]2(OCCO)c1ccc(Cl)cc1)[C@H]1CC[C@H](O)CC1 (single isomer, unassigned) [Example 517]

inhibition at 0.1 µM [3]: 32%
Compound: CCC(O)(c1cc(F)c2c(c1)C(=O)N(Cc1ccc(C#N)cn1)[C@@]2(OC[C@@H](C)O)c1ccc(Cl)cc1)C1(F)CCOCC1 (single isomer, unassigned) [Example 498]
SJSA1 (Protocol B) % at concentration (SJSA-1): 96% at 10

IC50 [2, 6]: 15 µM
IC50 (SJSA-1; [5]): 0.027 µM
Compound: CCC(O)(c1cc(F)c2c(c1)C(=O)N(Cc1ncc(Cl)cn1)[C@@]2(OC)c1ccc(Cl)cc1)C1(F)CCN(C)CC1 (single isomer, unassigned) [Example 563]

inhibition at 0.1 µM [3]: 21%
Compound: CCC(O)(c1cc(F)c2c(c1)C(=O)N(Cc1ccc(C#N)cn1)[C@@]2(OCCO)c1ccc(Cl)cc1)C1(F)CCOCC1 (single isomer, unassigned) [Example 500]
SJSA1 (Protocol B) % at concentration (SJSA-1): 16% at 10

IC50 [1, 4]: 0.26 µM
IC50 [3]: 3.1 nM
IC50 (SJSA-1; [5]): 0.38 µM
Compound: [2H]C([2H])(O)C1(C([2H])([2H])O[C@]2(c3ccc(Cl)cc3)c3c(F)cc(C(C)(C)O)cc3C(=O)N2Cc2ncc(C#N)cn2)CC1 [Example 513, 2-{[(1R)-1-(4-chlorophenyl)-7-fluoro-1-({1-[hydroxydideuteromethyl]cyclo-propyl}dideuteromethoxy)-5-(2-hydroxypropan-2-yl)-3-oxo-2,3-dihydro-1H-isoindol-2-yl]methyl}pyrimidine-5-carbonitrile]

IC50 [1, 4]: 0.075 µM
Compound: CCC(O)(c1cc(F)c2c(c1)C(=O)N(Cc1ncc(Cl)cn1)[C@@]2(OCC1(C(N)=O)CC1)c1ccc(Cl)cc1)c1cn(C)cn1 (stereo partly drawn) [Example 486, 1-({[(1R)-1-(4-chlorophenyl)-2-[(5-chloropyrimidin-2-yl)methyl]-7-fluoro-5-[1-hydroxy-1-(1-methyl-1H-imidazol-4-yl)propyl]-3-oxo-2,3-dihydro-1H-isoindol-1-yl]oxy}methyl) cyclopropane-1-carboxamide]

IC50 [1, 4]: 0.084 µM
IC50 (SJSA-1; [5]): 0.073 µM
Compound: CCC(O)(c1cc(F)c2c(c1)C(=O)N(Cc1ncc(C#N)cn1)[C@@]2(OCCO)c1ccc(Cl)cc1)[C@H]1CC[C@H](O)CC1 (stereo partly drawn) [Example 510, 2-{[(1R)-1-(4-chlorophenyl)-7-fluoro-5-{1-hydroxy-1-[trans-4-hydroxycyclohexyl]propyl}-1-(2-hydroxyethoxy)-3-oxo-2,3-dihydro-1H-isoindol-2-yl]methyl}pyrimidine-5-carbonitrile]

IC50 [1, 4]: 0.25 µM
IC50 (SJSA-1; [5]): 0.037 µM
Compound: CC[C@@](O)(c1cc(F)c2c(c1)C(=O)N(Cc1ncc(C#N)cn1)[C@@]2(O[C@H]1CCOC1)c1ccc(Cl)cc1)C1CCN(C)CC1 [Example 557, 2-{[(1R)-1-(4-chlorophenyl)-7-fluoro-5-[(1S)-1-hydroxy-1-(1-methylpiperidin-4-yl)propyl]-3-oxo-1-[(3S)-oxolan-3-yloxy]-2,3-dihydro-1H-isoindol-2-yl]methyl}pyrimidine-5-carbonitrile]

IC50 [1, 4]: 0.058 µM
inhibition at 0.001 µM [3]: 79%
IC50 (SJSA-1; [9]): 0.065 µM
Compound: CCC(O)(c1cc(F)c2c(c1)C(=O)N(Cc1ccc(C#N)cn1)[C@@]2(O[C@H]1C[C@@H](O)C1)c1ccc(Cl)cc1)[C@H]1CC[C@H](O)CC1 (single isomer, unassigned) [Example 518]

inhibition at 0.03 µM [3]: 32%
IC50 (SJSA-1; [9]): 3.9 µM
Compound: CCC(O)(c1cc(F)c2c(c1)C(=O)N(Cc1ccc(C#N)cn1)[C@@]2(O[C@H]1C[C@@H](O)C1)c1ccc(Cl)cc1)[C@H]1CC[C@H](O)CC1 (single isomer, unassigned) [Example 520]

IC50 [1, 4]: 0.034 µM
IC50 (SJSA-1; [5]): 0.046 µM
Compound: CCC(O)(c1cc(F)c2c(c1)C(=O)N(Cc1ncc(Cl)cn1)[C@@]2(O[C@H]1C[C@@H](O)C1)c1ccc(Cl)cc1)C1(F)CCN(C)CC1 (single isomer, unassigned) [Example 570]

IC50 [2, 6]: 18 µM
IC50 (SJSA-1; [5]): 0.022 µM
Compound: CCC(O)(c1cc(F)c2c(c1)C(=O)N(Cc1ncc(Cl)cn1)[C@@]2(OC[C@@H](C)O)c1ccc(Cl)cc1)C1(F)CCN(C)CC1 (single isomer, unassigned) [Example 572]

inhibition at 0.001 µM [3]: 55%
IC50 (SJSA-1; [5]): 0.079 µM
Compound: CN1CCC(C(C)(O)c2cc(F)c3c(c2)C(=O)N(Cc2ccc(Cl)cn2)[C@@]3(OCC2(CO)CC2)c2ccc(Cl)cc2)CC1 (single isomer, unassigned) [Example 555]
